This note sets out measurements from US20090149440A1, “NOVEL PYRIDONECARBOXYLIC ACID DERIVATIVES OR SALTS THEREOF” (priority 2004, published 2009).

Converted amounts (≈) assume the structure as drawn.

In series [1] the test system is human serum proteins. Nature of the series: Binding rate to proteins by ultrafiltration method. It counts as in vitro ADME. The following applies: 5 μg/mL, 37° C. for 30 minutes. As for the experimental part:
Binding rate to proteins of the compounds shown in Table 3 was determined by ultrafiltration method. Specifically, a 0.5 mg/mL DMSO solution of each compound was diluted with human serum or a 0.4% phosphate buffer (pH: 7.4 containing 0.5% NaCl) to thereby prepare a 5 μg/mL solution. The human serum solution was incubated at 37° C. for 30 minutes and centrifugally filtrated through a filter (pore size: 0.22 μm). A portion of the serum filtrate and the phosphate buffer solution were applied to an HPLC system, and the peak area of the compound was measured. Binding rate of each compound to human serum proteins was calculated by the following equation 1: Binding rate (%)=(A−B)×100/A (equation 1) A: Peak area (in phosphate buffer) B: Peak area (in serum filtrate)

Series [2] concerns female ICR mice. Nature of the series: Phototoxicity test: ear abnormalities after UV irradiation. It counts as in vivo. Also noted: key to Phototoxicity score: normal (0 point); slight erythema (score 1); medium erythema (score 2); serious erythema or edema (score 3). The following applies: 40 mg/10 mL/kg intravenously, UV 320 to 400 nm for four hours. As to the method: Each test compound was intravenously administered (40 mg/10 mL/kg) to female ICR mice (5- to 6-weeks old), and the mice were irradiated with UV-rays (320 to 400 nm, 1.8 mW/cm^2/sec) for four hours. Abnormalities induced in the ear of each mouse were observed immediately after (0 hour), 24 hours after, and 48 hours after the irradiation. The abnormality was evaluated according to the following criteria: normal (0 point), slight erythema (score 1), medium erythema (score 2), and serious erythema or edema (score 3).

Series [3] concerns S. haemolytlcus 67. Nature of the series: Antibacterial activity, minimum inhibitory concentration (standard method of the Japanese Society of Chemotherapy). Format: cell-based. As to the method: (§1) Minimum inhibitory concentration (MIC: μg/mL) of the compounds shown in Table 1 was determined according to the standard method of the Japanese Society of Chemotherapy (CHEMOTHERAPY 29(1), 76, 1981).

Series [4] concerns MRSA W44. The series is described as above. Format: cell-based. The following applies: Staphylococcus aureus. As to the method:
as §1

In series [5] the test system is P. mirabilis IFO3849. The description is as above. The following applies: Proteus mirabilis. Format: cell-based. As to the method: as §1
The test system of series [6] is M. luteus IFO12708. The description is as above. It counts as cell-based. The following applies: Micrococcus luteus. As to the method: as §1
Series [7] can be described thus: Pharmacokinetics: absorbability after oral administration, serum level. It counts as in vivo, dogs. The following applies: for Cmax / Tmax / half-life / AUC: dog, male beagle dogs, fasted, 10 mg/kg oral, 0.5% methylcellulose suspension, serum; for AUC: read-out: AUCO to 8 h. As to the method: Absorbability of the compounds shown in Table 4 was investigated in dogs. Specifically, a 0.5% methylcellulose suspension of each test compound (10 mg/kg) was forcedly orally administered to 2- to 4-years old male beagle dogs which had been fasted for 16 to 17 hours. The blood was collected from each dog at 0.25, 0.5, 1, 2, 4, 6, 8, and 24 hours after the administration, and the serum level of the test compound was determined to evaluate absorbability of the compound.

One may read the melting point as the temperature, or range, at which the solid turns liquid. As to `CC(C)NC1CN(c2c(F)cc3c(=O)c(C(=O)O)cn(-c4nc(N)c(F)cc4F)c3c2Br)C1.Cl`, the melting point was ≥ 210 °C (dec.).
One may read the MIC as the lowest concentration that inhibits growth of the organism. On to `CC(C)NC1CN(c2c(F)cc3c(=O)c(C(=O)O)cn(-c4nc(N)c(F)cc4F)c3c2Br)C1` [compound 1, 1-(6-Amino-3,5-difluoropyridin-2-yl)-8-bromo-6-fluoro-7-(3-isopropylaminoazetidin-1-yl)-4-oxo-1,4-dihydroquinolin-3-carboxylic acid], for which the “Binding rate to proteins” value in series [1] came to 64.0%. Also, the Phototoxicity incidence in series [2] (0 hour after irradiation), in series [2] (24 hours after irradiation) and in series [2] (48 hours after irradiation) was 0/3 throughout. Moreover, the Phototoxicity score in series [2] (0 hour after irradiation), in series [2] (24 hours after irradiation) and in series [2] (48 hours after irradiation) was 0 each time. For the same compound, the MIC came to 4 µg/mL (≈ 7.6 µM) in series [3], 0.03 µg/mL (≈ 0.057 µM) in series [4], 0.25 µg/mL (≈ 0.475 µM) in series [5] and 0.12 µg/mL (≈ 0.228 µM) in series [6].
`CNC1CN(c2c(F)cc3c(=O)c(C(=O)O)cn(-c4nc(N)c(F)cc4F)c3c2Br)C1` [compound 1, 1-(6-amino-3,5-difluoropyridin-2-yl)-8-bromo-6-fluoro-7-(3-methylaminoazetidin-1-yl)-4-oxo-1,4-dihydroquinolin-3-carboxylic acid]: the “Binding rate to proteins” value in series [1] is recorded as 49.0%. Further, the Phototoxicity incidence in series [2] (0 hour after irradiation), in series [2] (24 hours after irradiation) and in series [2] (48 hours after irradiation) was 0/3 each time. Moreover, the Phototoxicity score in series [2] (0 hour after irradiation), in series [2] (24 hours after irradiation) and in series [2] (48 hours after irradiation) was 0 in each case. The MIC in series [3] came out at 8 µg/mL (≈ 16.1 µM); in series [4], 0.06 µg/mL (≈ 0.12 µM); in series [5], 0.5 µg/mL (≈ 1 µM); in series [6] it was 0.25 µg/mL (≈ 0.502 µM).
In the case of `CC(C)NC1CN(c2c(F)cc3c(=O)c(C(=O)O)cn(-c4nc(N)c(F)cc4F)c3c2Cl)C1` [compound 2, 1-(6-Amino-3,5-difluoropyridin-2-yl)-8-chloro-6-fluoro-7-(3-isopropylaminoazetidin-1-yl)-4-oxo-1,4-dihydroquinolin-3-carboxylic acid], the melting point was ≥ 205 °C (dec.).
With `CCc1c(N2CC(NC(C)C)C2)c(F)cc2c(=O)c(C(=O)O)cn(-c3nc(N)c(F)cc3F)c12` [compound 3, 1-(6-Amino-3,5-difluoropyridin-2-yl)-6-fluoro-7-(3-isopropylaminoazetidin-1-yl)-8-ethyl-4-oxo-1,4-dihydroquinolin-3-carboxylic acid], the melting point was ≥ 238 °C (dec.). The “Binding rate to proteins” value in series [1] stood at 44.3%.
As a reminder, the Cmax is the maximum level reached in the sampled fluid or tissue. Usually Tmax stands for the time from dosing to the highest level. By half-life is commonly meant the time in which the quantity being followed falls by half. As to `CNC1CN(c2c(F)cc3c(=O)c(C(=O)O)cn(-c4nc(N)c(F)cc4F)c3c2Br)C1.O=C(O)/C=C\C(=O)O` [compound 3, 1-(6-amino-3,5-difluoropyridin-2-yl) 8-bromo-6-fluoro-7-(3-methylaminoazetidin-1-yl)-4-oxo-1,4-dihydroquinolin-3-carboxylic acid maleic acid salt], in series [7], the peak concentration (Cmax) was 1490 ng/mL, the time of peak concentration (Tmax) was 1 h, the half-life was 3.2 h and the AUC came to 7600 ng·h/mL.
Regarding `CC(C)(C)NC1CN(c2c(F)cc3c(=O)c(C(=O)O)cn(-c4nc(N)c(F)cc4F)c3c2Br)C1` [compound 4, 1-(6-Amino-3,5-difluoropyridin-2-yl)-8-bromo-7-(3-tert-butylaminoazetidin-1-yl)-6-fluoro-4-oxo-1,4-dihydroquinolin-3-carboxylic acid], the melting point was ≥ 225 °C (dec.). In addition, the “Binding rate to proteins” value in series [1] turned out to be 44.9%.
`CCNC1CN(c2c(F)cc3c(=O)c(C(=O)O)cn(-c4nc(N)c(F)cc4F)c3c2Br)C1.O=C(O)/C=C\C(=O)O` [compound 4, 1-(6-amino-3,5-difluoropyridin-2-yl) 8-bromo-7-(3-ethylaminoazetidin-1-yl)-6-fluoro-4-oxo-1,4-dihydroquinolin-3-carboxylic acid maleic acid salt]: in series [7], the peak level (Cmax) was 3730 ng/mL, the Tmax stood at 1 h, the half-life was 4.3 h and the AUC is 17500 ng·h/mL.
In the case of `CC(C)(C)NC1CN(c2c(F)cc3c(=O)c(C(=O)O)cn(-c4nc(N)c(F)cc4F)c3c2Cl)C1` [compound 5, 1-(6-Amino-3,5-difluoropyridin-2-yl)-7-(3-tert-butylaminoazetidin-1-yl)-8-chloro-6-fluoro-4-oxo-1,4-dihydroquinolin-3-carboxylic acid], the melting point was ≥ 250 °C (dec.).
With `Cc1c(N2CC(NC(C)(C)C)C2)c(F)cc2c(=O)c(C(=O)O)cn(-c3nc(N)c(F)cc3F)c12` [compound 6, 1-(6-Amino-3,5-difluoropyridin-2-yl)-7-(3-tert-butylaminoazetidin-1-yl)-6-fluoro-8-methyl-4-oxo-1,4-dihydroquinolin-3-carboxylic acid], the melting point was ≥ 193 °C (dec.). The “Binding rate to proteins” value in series [1] amounted to 26.8%.
Turning to `CNc1nc(-n2cc(C(=O)O)c(=O)c3cc(F)c(N4CC(NC(C)C)C4)c(C)c32)c(F)cc1F` [compound 7, 1-(3,5-Difluoro-6-methylaminopyridin-2-yl)-6-fluoro-7-(3-isopropylaminoazetidin-1-yl)-8-methyl-4-oxo-1,4-dihydroquinolin-3-carboxylic acid], the melting point was ≥ 218 °C (dec.).
The same measure, in the same setting: the figure for `CCNc1nc(-n2cc(C(=O)O)c(=O)c3cc(F)c(N4CC(NC(C)C)C4)c(C)c32)c(F)cc1F` [compound 8, 1-(6-Ethylamino-3,5-difluoropyridin-2-yl)-6-fluoro-7-(3-isopropylaminoazetidin-1-yl)-8-methyl-4-oxo-1,4-dihydroquinolin-3-carboxylic acid] is ≥ 202 °C (dec.); for `CNc1nc(-n2cc(C(=O)O)c(=O)c3cc(F)c(N4CC(NC(C)C)C4)c(Cl)c32)c(F)cc1F` [compound 9, 8-Chloro-1-(3,5-difluoro-6-methylaminopyridin-2-yl)-6-fluoro-7-(3-isopropylaminoazetidin-1-yl)-4-oxo-1,4-dihydroquinolin-3-carboxylic acid] it is ≥ 244 °C (dec.); for `CC(C)Nc1nc(-n2cc(C(=O)O)c(=O)c3cc(F)c(N4CC(NC(C)C)C4)c(Cl)c32)c(F)cc1F` [compound 10, 8-Chloro-1-(3,5-difluoro-6-isopropylaminopyridin-2-yl)-6-fluoro-7-(3-isopropylaminoazetidin-1-yl)-4-oxo-1,4-dihydroquinolin-3-carboxylic acid] it is ≥ 248 °C (dec.).
Still for that read-out and setting: the figure for `CNc1nc(-n2cc(C(=O)O)c(=O)c3cc(F)c(N4CC(NC(C)C)C4)c(Br)c32)c(F)cc1F` [compound 11, 8-Bromo-1-(3,5-difluoro-6-methylaminopyridin-2-yl)-6-fluoro-7-(3-isopropylaminoazetidin-1-yl)-4-oxo-1,4-dihydroquinolin-3-carboxylic acid] is ≥ 220 °C (dec.).
Turning to `CC(C)NC1CN(c2c(F)cc3c(=O)c(C(=O)O)cn(-c4nc(N)c(F)cc4F)c3c2Br)C1.O=C(O)/C=C\C(=O)O` [compound 12, 1-(6-amino-3,5-difluoropyridin-2-yl)-8-bromo-6-fluoro-7-(3-isopropylaminoazetidin-1-yl)-4-oxo-1,4-dihydroquinolin-3-carboxylic acid maleic acid salt], the “Binding rate to proteins” value in series [1] was determined as 64.0%. Further, in series [7], the peak level (Cmax) was 5250 ng/mL, the Tmax was determined as 1 h, the half-life is 5.8 h and the AUC came out at 30900 ng·h/mL. For the same compound, in series [7] (dogs, oral, compared with comparative compounds 3 and 4), the “Pharmacokinetics (in words)” value is recorded as “remarkably improved”.
Regarding `CC(C)NC1CN(c2c(F)cc3c(=O)c(C(=O)O)cn(-c4nc(N)c(F)cc4F)c3c2Br)C1.CS(=O)(=O)O` [compound 13, 1-(6-Amino-3,5-difluoropyridin-2-yl)-8-bromo-6-fluoro-7-(3-isopropylaminoazetidin-1-yl)-4-oxo-1,4-dihydroquinolin-3-carboxylic acid methanesulfonic acid salt], the melting point is ≥ 224 °C (dec.).
